Columns and labels:
C57BL/6J mice = assay: PG-induced breakdown of the BRB in mice after intraocular injection of a vasopermeability factor; format: in vivo; conditions: 50 mg/kg/day by gavage for 3 days, then intraocular PGE1 or PGE2 10^-5 M
Experimental: Six to seven week old male C57BL/6J mice are treated in accordance with the ARVO resolution on the care of animals in research. Mice are treated by gavage with vehicle or vehicle containing 50 mg/kg/day of PKC412, PTK787, SU1498, or Gleevec. After 3 days of treatment, mice are given an intraocular injection of 1 μl of vehicle containing a vasopermeability factor or vehicle alone.
Mice are anesthetized with 25 mg/kg of ketamine and 4 mg/kg of xylazine, pupils are dilated with 1% tropicamide. Intraocular injections are performed as previously described with a Harvard pump microinjection apparatus and pulled glass micropipets. Each micropipet is calibrated to deliver 1 μl of vehicle upon depression of a foot switch. […] Some mice are used for quantitative measurement of BRB breakdown using [3H]mannitol and in others leakage of albumin through retinal vessels is assessed by Western blots or immunohistochemistry.
Six or 24 hours after intraocular injections, mice are given an intraperitoneal injection of 1 μCi / gram body weight of [3H]mannitol (New England Nuclear, Boston, Mass.). […] The vials are weighed and the tissue weights are recorded. […] Radioactivity is counted with a Wallac 1409 Liquid Scintillation Counter (Gaithersburg, Md.). […]

C57B/J6 mice = assay: BRB breakdown in mice after intravitreal VEGF, quantitated with [3H]-mannitol tracer; format: in vivo
Text: Intraperitoneally administered radiolabeled tracer can be used to quantitate BRB breakdown in mice exposed to vascular endothelial growth factor (VEGF). This technique is particularly advantageous with neonatal mice because of the technical difficulty involved with intravascular injections. Also, the comparison of retinas from injected and control eyes to tissues without a blood-tissue barrier corrects for variations in the amount of isotope injected or absorbed into the circulation.
Ten six- to seven-week-old C57B/J6 mice (Jackson Labs, Bar Harbor, Me.) are weighed to determine the proper dosage of anesthesia and tracer required. Mice are anesthetized with a solution containing 25 mg/kg ketamine (Ketaset; Fort Dodge Animal Health, Fort Dodge, Iowa) and 4 mg/kg rompun (Tranquived; Vedco, St. Joseph, Mo.) diluted 1:10 in saline prior to injection. Five mice are subjected to gavage with 50 mg/kg N-benzoyl staurosporine for three days prior to intravitreal administration of VEGF; the other five mice are subjected to gavage with vehicle.
Tropicamide (1%) is used to dilate the pupils of anesthetized mice. Under a dissecting microscope, a Harvard injector (PLI 100) is used with a glass pipet pulled to a diameter of 13-20 μm to inject 1 μl of saline containing VEGF (R&D Systems, Minneapolis, Minn.). The eyes are entered posterior to the limbus, directing the pipet toward the optic nerve. The solution is then deposited just in front of the retina without inflicting any damage to the lens. […]
One ml NCSII (Amersham, Chicago, Ill.) solubilizing solution is added to each vial and the vials are incubated overnight in a 50° C. water bath. […] The specimens are counted on a Wallac 1409 Liquid Scintillation Counter (Gaithersburg, :Md.).
The counts per mg tissue are determined for treated (with N-benzoyl staurosporine) and untreated retina, lung, and kidney. Ratios of these values for treated or untreated retina/lung or kidney and for lung/kidney are calculated. […]

[1] = mice, 50 mg/kg by gavage for three days before intravitreal VEGF 10^-6 M, [3H]-mannitol at 6 hours

| SMILES | PG-induced breakdown of the BRB (C57BL/6J mice) | leakage of radioactive tracer out of the retinal blood vessels (C57B/J6 mice; VEGF-injected mice given 50 mg/kg N-benzoyl staurosporine by gavage for three days, compared to vehicle-gavaged VEGF-injected mice) | retina/kidney ratio (C57B/J6 mice; [1]) | retina/lung ratio (cpm per mg of retina/cpm per mg of lung) (C57B/J6 mice; [1]) |
| --- | --- | --- | --- | --- |
| Clc1ccc(Nc2nnc(Cc3ccncc3)c3ccccc23)cc1 [PTK787, reference compound] | not | – | – | – |
| CO[C@@H]1[C@H](N(C)C(=O)c2ccccc2)C[C@H]2O[C@]1(C)n1c3ccccc3c3c4c(c5c6ccccc6n2c5c31)C(=O)NC4 [N-benzoyl staurosporine] | reduces PG-induced breakdown of the BRB | significantly less leakage | 0.3881±0.0436 | 0.6326±0.0656 |
